Test results from patent US20150246025A1, “2-PHENYL-5-HETEROCYCLYL-TETRAHYDRO-2H-PYRAN-3-AMINE COMPOUNDS FOR USE IN THE TREATMENT OF DIABETES AND ITS ASSOCIATED DISORDERS” (CADILA HEALTHCARE LIMITED, priority 2012, published 2015).

Experiments:
[1] = biological target: T1, DPP-IV enzyme (Homo sapiens, UniProt P27487); test: In vitro DPP-IV inhibitory activity using enzymatic (fluorescence-based) assay; assay type: biochemical; settings: soluble human DPP-IV, H-Gly-Pro-AMC 200 μM, pH 7.8, 25° C., 30 min; read-out: % In-vitro DPPIV Inhibition IC50
T1 construct: soluble human proteins (DPP-IV enzyme) produced in a baculovirus expression system; made in house; host or cells: baculovirus expression system (Life Technologies)
T1 sequence (P27487 39-766 limits assumed): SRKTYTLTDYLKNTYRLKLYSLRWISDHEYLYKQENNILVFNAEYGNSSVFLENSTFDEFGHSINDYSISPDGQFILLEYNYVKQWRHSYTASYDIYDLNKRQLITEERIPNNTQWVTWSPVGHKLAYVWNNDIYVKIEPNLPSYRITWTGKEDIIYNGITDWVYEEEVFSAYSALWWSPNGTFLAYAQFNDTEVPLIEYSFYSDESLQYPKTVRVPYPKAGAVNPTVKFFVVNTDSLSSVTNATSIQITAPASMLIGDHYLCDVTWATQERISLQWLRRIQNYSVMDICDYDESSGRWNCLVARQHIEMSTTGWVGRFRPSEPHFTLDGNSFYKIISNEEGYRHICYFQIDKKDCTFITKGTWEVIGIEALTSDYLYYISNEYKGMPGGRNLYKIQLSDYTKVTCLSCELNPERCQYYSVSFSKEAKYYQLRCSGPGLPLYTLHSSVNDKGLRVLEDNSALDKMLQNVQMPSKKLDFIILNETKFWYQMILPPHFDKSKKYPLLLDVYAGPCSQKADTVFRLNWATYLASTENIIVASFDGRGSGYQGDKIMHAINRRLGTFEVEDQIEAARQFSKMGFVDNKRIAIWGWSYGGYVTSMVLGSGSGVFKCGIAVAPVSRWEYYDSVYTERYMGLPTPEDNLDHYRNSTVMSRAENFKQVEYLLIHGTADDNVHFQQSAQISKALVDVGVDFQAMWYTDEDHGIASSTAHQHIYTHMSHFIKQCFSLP
Protocol: In Vitro DPP-IV Inhibitory Activity Using Enzymatic Assay:
In vitro enzyme (DPP-IV) inhibitory activity was determined using fluorescence-based assay (Anal. Biochem., 200, 352, 1992). The Gly-Pro-AMC was used as a substrate (which is cleaved by the enzymes to release the fluorescent AMC) and soluble human proteins (DPP-IV enzyme) produced in a baculovirus expression system (Life Technologies) was used as the enzyme source. The H-Gly-Pro-AMC (200 μM) was incubated with DPP-IV enzyme in the presence of various concentrations (30 & 100 nM) of test compounds. Reaction was carried out at pH 7.8 (HEPES buffer 25 mM containing 1.0% BSA, 140 mM NaCl, 16 mM MgCl2, 2.8% DMSO) in a total volume of 100 μl at 25° C. for 30 min., in the dark. Reaction was terminated with acetic acid (25 μl of 25% solution). Activity (fluorescence) was measured using Spectra Max fluorometer (Molecular Devices, Sunnyvale Calif.) by exciting at 380 nm and emission at 460 nm.

[2] = tested on: C57BL/6J mice; test: In vivo antihyperglycaemic/antidiabetic activity (OGTT), acute single dose 120-min time-course; settings: Mus musculus, 2 h; male C57BL/6J mice, acute single dose 0,3 mg/kg po, 120-min time-course, n = 6, Mean ± SEM; read-out: In vivo OGTT C57; % Glucose change
Protocol: Acute single dose 120-min time-course experiments were carried out in male C57BL/6J mice, age 8-12 weeks, bred in-house. Animals were housed in groups of 6 animals per cage, for a week, in order to habituate them to vivarium conditions (25±4° C., 60-65% relative humidity, 12: 12 h light: dark cycle, with lights on at 7.30 am). All the animal experiments were carried out according to the internationally valid guidelines following approval by the ‘Zydus Research Center animal ethical committee’.
The in-vivo glucose lowering properties of the test compounds were evaluated in C57BL/6J (mild hyperglycemic) animal models as described below. Two days prior to the study, the animals were randomized and divided into groups (n=6), based upon their fed glucose levels. On the day of experiment, food was withdrawn from all the cages, water was given ad-libitum and were kept for overnight fasting. Vehicle (normal saline)/test compounds were administered orally, on a body weight basis. Soon after the 0 min. blood collection from each animal, the subsequent blood collections were done at 30, 60 and 120 or upto 240 min., via retro-orbital route, under light ether anesthesia (Diabetes Obesity Metabolism, 7, 307, 2005; Diabetes, 52, 751, 2003).
Blood samples were centrifuged and the separated serum was immediately subjected for the glucose estimation. Serum for insulin estimation was stored at −70° C. until used for the insulin estimation. The glucose estimation was carried out with DPEC-GOD/POD method (Ranbaxy Fine Chemicals Limited, Diagnostic division, India), using Spectramax-190, in 96-microwell plate reader (Molecular devices Corporation, Sunnyvale, Calif.). […] The AUC and BCAUC obtained from graphs were analyzed for one way ANOVA, followed by Dunnett's post test, using Graph Pad prism software.

| SMILES | IC50 [1] [µM] | change in vivo at 0.3 mg/kg [2] [%] |
| --- | --- | --- |
| N[C@H]1C[C@@H](N2CC3CN(S(=O)(=O)C(F)(F)F)CC3C2)CO[C@@H]1c1cc(F)ccc1F (stereo partly drawn) [Compound 5, (2R,3S,5R)-2-(2,5-difluorophenyl)-5-(5-((trifluoromethyl)sulfonyl)hexahydropyrrolo[3,4-c]pyrrol-2(1H)-yl)tetrahydro-2H-pyran-3-amine] | < 0.1 | -7.6 ± 1.3 |
| N[C@H]1C[C@@H](N2CC3=C(C2)CN(S(=O)(=O)c2ccc(OC(F)(F)F)cc2)C3)CO[C@@H]1c1cc(F)ccc1F [Compound 35, (2R,3S,5R)-2-(2,5-difluorophenyl)-5-(5-((4-(trifluoromethoxy)phenyl)sulfonyl)-5,6-dihydropyrrolo[3,4-c]pyrrol-2(1H,3H,4H)-yl)tetrahydro-2H-pyran-3-amine] | < 0.03 | -20.5 ± 3.8 |
| COc1ccc(S(=O)(=O)N2CC3=C(CN([C@H]4CO[C@H](c5cc(F)ccc5F)[C@@H](N)C4)C3)C2)cc1 [Compound 38, (2R,3S,5R)-2-(2,5-difluorophenyl)-5-(5-((4-methoxyphenyl)sulfonyl)-5,6-dihydropyrrolo[3,4-c]pyrrol-2(1H,3H,4H)-yl)tetrahydro-2H-pyran-3-amine] | < 0.01 | -22 ± 2.6 |
| N[C@H]1C[C@@H](N2CC3=C(C2)CN(S(=O)(=O)c2ccc(F)cc2F)C3)CO[C@@H]1c1cc(F)ccc1F [Compound 36, (2R,3S,5R)-2-(2,5-difluorophenyl)-5-(5-((2,4-difluorophenyl)sulfonyl)-5,6-dihydropyrrolo[3,4-c]pyrrol-2(1H,3H,4H)-yl)tetrahydro-2H-pyran-3-amine] | < 0.01 | -22.2 ± 2.5 |
| N#Cc1ccc(S(=O)(=O)N2CC3=C(CN([C@H]4CO[C@H](c5cc(F)ccc5F)[C@@H](N)C4)C3)C2)cc1 [Compound 34, 4-((5-((3R,5S,6R)-5-amino-6-(2,5-difluorophenyl)tetrahydro-2H-pyran-3-yl)-5,6-dihydropyrrolo[3,4-c]pyrrol-2(1H,3H,4H)-yl)sulfonyl)benzonitrile] | < 0.01 | -30.1 ± 3.4 |
| N[C@H]1C[C@@H](N2CC3=C(C2)CN(S(=O)(=O)C(F)(F)F)C3)CO[C@@H]1c1cc(F)ccc1F [Compound 29, (2R,3S,5R)-2-(2,5-difluorophenyl)-5-(5-((trifluoromethyl)sulfonyl)-5,6-dihydropyrrolo[3,4-c]pyrrol-2(1H,3H,4H)-yl)tetrahydro-2H-pyran-3-amine] | < 0.03 | -27.7 ± 3.1 |
| N[C@H]1C[C@@H](N2CC3CN(S(=O)(=O)c4ccccc4)CC3C2)CO[C@@H]1c1cc(F)ccc1F (stereo partly drawn) [Compound 6, (2R,3S,5R)-2-(2,5-difluorophenyl)-5-(5-(phenylsulfonyl)hexahydropyrrolo[3,4-c]pyrrol-2(1H)-yl)tetrahydro-2H-pyran-3-amine] | < 0.1 | -7.3 ± 1.6 |
| CCS(=O)(=O)N1CC2=C(CN([C@H]3CO[C@H](c4cc(F)ccc4F)[C@@H](N)C3)C2)C1 [Compound 30, (2R,3S,5R)-2-(2,5-difluorophenyl)-5-(5-(ethylsulfonyl)-5,6-dihydropyrrolo[3,4-c]pyrrol-2(1H,3H,4H)-yl)tetrahydro-2H-pyran-3-amine] | < 0.01 | -35 ± 1.4 |
| N[C@H]1C[C@@H](N2CC3C(=O)N(Cc4ccccc4)C(=O)C3C2)CO[C@@H]1c1cc(F)ccc1F (stereo partly drawn) [Compound 11, 5-((3R,5S,6R)-5-amino-6-(2,5-difluorophenyl)tetrahydro-2H-pyran-3-yl)-2-benzyltetrahydropyrrolo[3,4-c]pyrrole-1,3(2H,3aH)-dione] | < 0.1 | -25.6 ± 3.2 |
| N[C@H]1C[C@@H](N2CC3CNCC3C2)CO[C@@H]1c1cc(F)ccc1F (stereo partly drawn) [Compound 4, (2R,3S,5R)-2-(2,5-difluorophenyl)-5-(hexahydropyrrolo[3,4-c]pyrrol-2(1H)-yl)tetrahydro-2H-pyran-3-amine] | < 0.1 | -16.5 ± 3.8 |
| N[C@H]1C[C@@H](N2CC3=C(CN(C=O)C3)C2)CO[C@@H]1c1cc(F)ccc1F [Compound 48, 5-((3R,5S,6R)-5-amino-6-(2,5-difluorophenyl)tetrahydro-2H-pyran-3-yl)-3,4,5,6-tetrahydropyrrolo[3,4-c]pyrrole-2(1H)-carbaldehyde] | < 0.01 | -38.5 ± 1.5 |
| CC(=O)N1CC2=C(C1)CN([C@H]1CO[C@H](c3cc(F)ccc3F)[C@@H](N)C1)C2 [Compound 41, (2R,3S,5R)-5-(5-acetyl-5,6-dihydropyrrolo[3,4-c]pyrrol-2(1H,3H,4H)-yl)-2-(2,5-difluorophenyl)tetrahydro-2H-pyran-3-amine] | < 0.1 | -6.04 ± 2.6 |
| CCOC(=O)N1CC2=C(C1)CN([C@H]1CO[C@H](c3cc(F)ccc3F)[C@@H](N)C1)C2 [Compound 28, (2R,3S,5R)-2-(2,5-difluorophenyl)-5-(5-(ethoxycarbonyl)-5,6-dihydropyrrolo[3,4-c]pyrrol-2(1H,3H,4H)-yl)tetrahydro-2H-pyran-3-amine] | < 0.01 | -35 ± 6.1 |
| N[C@H]1C[C@@H](N2CC3CS(=O)(=O)CC3C2)CO[C@@H]1c1cc(F)ccc1F (stereo partly drawn) [Compound 43, 5-((3R,5S,6R)-5-amino-6-(2,5-difluorophenyl)tetrahydro-2H-pyran-3-yl)hexahydro-1H-thieno[3,4-c]pyrrole 2,2-dioxide] | < 0.03 | -15.5 ± 3.6 |
| CC(=O)N[C@H]1C[C@@H](N2CC3=C(CN(C(C)=O)C3)C2)CO[C@@H]1c1cc(F)ccc1F [Compound 47, N-((2R,3S,5R)-5-(5-acetyl-5,6-dihydropyrrolo[3,4-c]pyrrol-2(1H,3H,4H)-yl)-2-(2,5-difluorophenyl)tetrahydro-2H-pyran-3-yl)acetamide] | < 0.1 | 8.6 ± 5.9 |
| N[C@H]1C[C@@H](N2CC3=C(CN(C(=O)C(F)(F)F)C3)C2)CO[C@@H]1c1cc(F)ccc1F [Compound 50, 1-(5-((3R,5S,6R)-5-amino-6-(2,5-difluorophenyl)tetrahydro-2H-pyran-3-yl)-5,6-dihydropyrrolo[3,4-c]pyrrol-2(1H,3H,4H)-yl)-2,2,2-trifluoroethanone] | < 0.01 | -30 ± 1.4 |
| N[C@H]1C[C@@H](N2CC3=C(C2)CN(S(=O)(=O)c2ccc(F)cc2)C3)CO[C@@H]1c1cc(F)ccc1F [Compound 33, (2R,3S,5R)-2-(2,5-difluorophenyl)-5-(5-((4-fluorophenyl)sulfonyl)-5,6-dihydropyrrolo[3,4-c]pyrrol-2 (1H,3H,4H)-yl)tetrahydro-2H-pyran-3-amine] | < 0.03 | -16.8 ± 1.6 |
| CS(=O)(=O)NC1CC2CN([C@H]3CO[C@H](c4cc(F)ccc4F)[C@@H](N)C3)CC2C1 (stereo partly drawn) [Compound 21, N-(2-((3R,5S,6R)-5-amino-6-(2,5-difluorophenyl)tetrahydro-2H-pyran-3-yl)octahydrocyclopenta[c]pyrrol-5-yl)methanesulfonamide] | < 0.1 | -15 ± 4 |
| CC(C)S(=O)(=O)N1CC2=C(CN([C@H]3CO[C@H](c4cc(F)ccc4F)[C@@H](N)C3)C2)C1 [Compound 31, (2R,3S,5R)-2-(2,5-difluorophenyl)-5-(5-(isopropylsulfonyl)-5,6-dihydropyrrolo[3,4-c]pyrrol-2(1H,3H,4H)-yl)tetrahydro-2H-pyran-3-amine] | < 0.01 | -28.1 ± 3.2 |
| CC(=O)N[C@H]1C[C@@H](N2CC3=C(C2)CN(S(C)(=O)=O)C3)CO[C@@H]1c1cc(F)ccc1F [Compound 46, N-((2R,3S,5R)-2-(2,5-difluorophenyl)-5-(5-(methylsulfonyl)-5,6-dihydropyrrolo[3,4-c]pyrrol-2(1H,3H,4H)-yl)tetrahydro-2H-pyran-3-yl)acetamide] | < 0.1 | -9.3 ± 3.8 |
| N[C@H]1C[C@@H](N2CC3=C(CN(C(=O)C4CCCC4)C3)C2)CO[C@@H]1c1cc(F)ccc1F [Compound 25, (5-((3R,5S,6R)-5-amino-6-(2,5-difluorophenyl)tetrahydro-2H-pyran-3-yl)-5,6-dihydropyrrolo[3,4-c]pyrrol-2(1H,3H,4H)-yl)(cyclopentyl)methanone] | < 0.03 | -12.2 ± 2.5 |
